The results in this text go back to patent publication US20060229255A1, “Identification of n-alkylglycine trimers for induction of apoptosis” (priority 2003, published 2006).

Common to all, as to type: cell-based, human
In one experiment the test system is T98 g cells. Kind of experiment: Cell cycle DNA analysis in synchronized cells. Conditions: 19 h after serum re-addition, 100 μM. As for the experimental part:
Experimentally this finding was substantiated analysing the compounds in a cellular model with synchronized cells. T98 g cells were arrested in G1 phase (82%) by serum starvation in MCDB 105 medium after 72 h. Upon 10% serum re-addition, cells were allowed to re-enter into the cell cycle. More than 50% of the cells were in the S-phase, and only 20% remained in G1 after 19 h of FCS introduction. Addition of N10-13-10C or N13-13-10C to the cultures at the moment of serum addition restrained S-phase entry (FIG. 7. A). Around 40% of the cells were retained in G1. In conclusions both N10-13-10C and N13-13-10C were able to induce a G1 arrest either in asynchronous or in synchronized cell cultures, as determined by cell cycle DNA analysis. In comparison, Olomucine which is a cdk2 inhibitor, retained 80% of the cells in G1. The topoisomerase II inhibitor etoposide treated cells were arrested in S phase of the cell cycle (85% of the cell population).
DNA analysis. Floating and adherent cells treated with the compounds were collected by trypsinization and washed twice with PBS. The cells were permeabilized overnight at −20° C. with ice-cold ethanol 70%. The cells were washed in PBS, adjusted at 0.5×10^6 cells/ml and incubated with 20 μg/ml Propidium Iodide and 2 μl/ml RNase DNase-free for 30 min at 30° C. Cells were maintained overnight at 4° C. and then analysed by flow cytometry. Flow cytometric experiments were carried out using an Epics XL flow cytometer (Coulter Corporation, Hialeah, Fla.). The instrumet was set up with the standard configuration: excitation of the sample was done using an standard 488 nm air-cooled argon-ion laser at 15 mW power. Forward scatter (FSC), side scatter (SSC) and red (620 nm) fluorescence for PI were adquired. Optical alignement was based on optimized signal from […] fluorescent beads (Immunocheck, Epics Division). Time was used as a control of the stability of the instrument. Red fluorescence was projected on a 1024 monoparametrical histogram. Aggregates were excluded gating single cells by their area vs. peak fluorescence signal. DNA analysis (Ploidy analysis) on single fluorescence histograms was done using Multicycle software (Phoenix Flow Systems, San Diego, Calif.).
FIG. 7. […] (A) T98 g cells were synchronized and reinitiated for 19 h with FCS alone or in combination with N10-13-10C (100 μM), N13-13-10C (100 μM), Olomucine (100 μM), etoposide (5 μM) or Taxol (30 nM). Cell cycle profile was assessed by propidium iodide DNA staining and analyzed by flow cytometry. The fraction of cells with G1, S, G2/M DNA content are shown as % of total cell population. (B. and C.) Synchronized T98 g cells were reinitiated with FCS alone or in combination with serial dilutions of N4-13-10C, N5-13-10C, N10-13-10C, N13-13-10C, Olomucine or etoposide for 19 h and labeled with BrdU during the last 2 h. BrdU incorporation was assessed by ELISA using anti-BrdU antibodies. An arbitrary value of 100% was assigned to the densiometric rate of DNA synthesis by untreated cultures and all other values are depicted relative to that reference. The values are means of three (n=3) replicates.

Another experiment relates to Bax. Kind of experiment: Western blot of Bax. The conditions noted are these: HT29 cells. How it is done: (§1) Western blotting. Floating and adherent cells were harvested and pellets were resuspended in RIPA buffer (50 mM Tris/HCl 7.4, 250 mM NaCl, 0,5% Igepal CA630, 5 mM EDTA, 1 mM PMSF, 10 μg/ml leupeptin, 50 mM NaF, 0.1 mM Na3VO4) or Deoxycholate buffer (10 mM phosphate buffer 7.4, […] NaCl, 0.5% Deoxycholate, 1% Igepal, 0.1% SDS, 1 mM PMSF). Protein concentration was determined with BCA Protein Assay Kit (Pierce) for RIPA extracts or Bradford assay (BioRad) for Deoxycholate extracts. Total protein (20-30 μg/lane) were separated by SDS-PAGE, transferred to PVDF membranes (Gellman), and probed with antibodies against Bcl-xL (Transduction); Bax (Santa Cruz); JNK (Santa Cruz); phospho-JNK (Cell Signaling); pRb (Pharmingen); pRb-phospho Ser780 (Cell Signalling); p130 (Santa Cruz); p107 (Santa Cruz); Cdk2 (Santa Cruz); p27^Kip1 (Santa Cruz); p21^Cip1 (Santa Cruz); actin (Sigma); or tubulin (ICN) and developed with ECL system (AmershamPharmacia biotech)
(§2) FIG. 6. (A) JNK is activated after N13-13-10C treatment. HT29 cells were treated for 1, 3, 6 and 24 h with N13-13-10C (35 μM), harvested and immunoblotted to assess activation of SAP/JNK MAP kinase. Western blot was first probed with the JNK-phosphor specific antibody, was stripped and reprobed with the pan-JNK antibody and actin to normalize total protein level. […]

The next experiment has as its system JNK. Kind of experiment: Western blot with JNK-phosphorylation specific antibody. Conditions: HT29 cells. How it is done: as §1, §2
Background: A western blot detects proteins with antibodies after separation by electrophoresis.

Experiment [1] relates to pRb, p130, p107, p27kip1, p21Cip1. Kind of experiment: Western blot of G1 checkpoint proteins in synchronized T98 g cells. As for the experimental part: as §1
FIG. 8. Expression of protein involved in G0/G1 checkpoint. (A.) HT29 cells were treated for 1, 3, 6 and 24 h with N10-13-10C (40 μM) or N13-13-10C (35 µM), harvested and immunoblotted to assess total pRb levels or Cdk4 specific phosphorylation at pRb-Ser^780 (PpRb). Western blot was first probed with the pRb-Ser^780 phosphorylation specific antibody, was stripped and reprobed with the pan-pRb antibody and tubulin to normalize total protein level. (B.) T98 g cells were synchronized by serum starvation and reinitiated with 10% FCS and DMSO (C), N13-13-10C (100 μM) or Taxol (30 nM) for 15, 17, 24 or 29 h. Western blot of total protein extracts was probed with antibodies to p130, pRb, p107, Cdk2, cycA, p27, p21 and actin. Unphosphorylated, hypophosphorylated as well as hyperphosphorylated pRb are detected (arrows). (C.) HT29 cells treated for 24 and 48 h with N13-13-10C (40 μM) or DMSO as control. Immunoblots were stained with antibodies to Cdk2, cycA, p21, p27 and actin.

Take `COc1ccc(CCN(CC(=O)N(CCc2ccccc2)CC(N)=O)C(=O)CNCCc2ccccc2)cc1` [N10-13-10C]: the “Cells retained in G1” value with T98 g cells is listed as “Around 40%”. Further, the Bax level entry in the experiment with Bax is given as “not increased”.
Turning to `COc1ccc(CCNCC(=O)N(CCc2ccc(OC)cc2)CC(=O)N(CCc2ccccc2)CC(N)=O)cc1` [N13-13-10C], in the experiment on T98 g cells, the “Cells retained in G1” value is on record as “Around 40%”. Besides, in the experiment on JNK, the “Time of JNK activation (phosphorylation)” value lay in the range of 3 to 6 h. For the same molecule, the “Time of p21Cip1 peak levels” value in experiment [1] (T98 g, 100 μM) is 17 h. Further, in experiment [1] (T98 g, after 15 h of treatment), the p27kip1 level result is “appreciable induction”. In addition, in experiment [1] (synchronized T98 g, 100 μM), the “Total pRb levels” value is recorded as “decreased total pRb levels”, the p107 levels result was “down regulated”, the p130 phosphorylation result is given as “remains also hypophosphorylated” and the p130 total levels result is given as “total levels are increased”. The pRb hyperphosphorylation result in experiment [1] (synchronized T98 g, 100 μM) is reported as “prevented pRb hyperphosphorylation”.
